Source: patent US20080070958A1, “Therapeutic Agent for Keratoconjunctival Disorder” (priority 2004, published 2008)

Tested on: corneal damage in corneal disorder models
Assay: Test for therapeutic effect on corneal damage (rat corneal disorder model, exorbital lacrimal gland removal, fluorescein staining score)
Type: in vivo, male SD rats
Details: for Improvement ratio (%): {(control)-(compound)}/{(control)-(normal eye)}x100; for Mean value of total scores: fluorescein staining score of cornea (upper, middle, lower parts, each 0-3), mean of 8 eyes
Protocol: Test for Therapeutic Effect on Corneal Damage Using male SD rats, in accordance with the method of Fujihara et al. (Invest. Ophthalmol. Vis. Sci. 42 (1): 96-100 (2001)), corneal disorder models were produced. After the production of the corneal disorder models, the improvement ratio of a corneal damage was evaluated according to the method of Murakami et al. (Journal of the eye 21 (1): 87-90 (2004)). Male SD rats were systemically anesthetized by an administration of Nembutal. Subsequently the exorbital lacrimal gland of each rat was removed and a corneal damage was induced over a period of 2 months. Then, E-4-[4-(5-methyl-2-phenyl-4-oxazolylmethoxy) benzyloxyimino]-4-phenylbutyric acid (Compound A), Z-2-[4-(5-methyl-2-phenyl-4-oxazolylmethoxy) benzyloxyimino]-2-(4-phenoxyphenyl) acetic acid (Compound B), 2-[2-propyl-3-[3-[2-ethyl-4-(4-fluorophenyl)-5-hydroxyphenoxy]propoxy]phenoxy]sodium benzoate (Compound C) or 2(S)-methoxy-3-[4-[3-(4-phenoxyphenoxy)propoxy]phenyl] propionic acid (Compound D) was administered to the rats as follows. A physiological saline solution of Compound A (0.006%) was instilled into both eyes 6 times a day for 7 days (one group consisting of 4 animals, 8 eyes). A physiological saline solution of Compound B (0.006%) was instilled into both eyes 6 times a day for 7 days (one group consisting of 4 animals, 8 eyes). A physiological saline solution of Compound C (0.006%) was instilled into both eyes 6 times a day for 7 days (one group consisting of 4 animals, 8 eyes). A phosphate-buffered saline (PBS) solution of Compound D (0.002%) was instilled into both eyes 6 times a day for 7 days (one group consisting of 4 animals, 8 eyes). In a control group, physiological saline or PBS was instilled into both eyes 6 times a day for 7 days (one group consisting of 4 animals, 8 eyes). Seven days after the start of instillation, the damaged parts of the cornea were stained with fluorescein. For each of the upper, middle and lower parts of the cornea, the degree of fluorescein staining was evaluated by scoring according to the criteria shown below and the mean value of the total scores for each of the above-mentioned parts was calculated. • 0: No punctate staining • 1: Scattered staining (punctate staining being separated) • 2: Moderate staining (a part of punctuate staining being adjacent) • 3: Heavy staining (punctate staining being barely separated) (Results) By taking the mean value of the total scores for the control group (physiological saline or PBS) as a standard (improvement ratio: 0%), the calculation was carried out. Each of the improvement ratios for the Compound A administration group, the Compound B administration group and the Compound C administration group is shown in Table 1 and the improvement ratio for the Compound D administration group is shown in Table 2. The mean value of the scores is a mean of those of 8 cases, respectively. The improvement ratio was calculated according to the following equation. Improvement ratio (%)={(control)−(the present compound)}/damage degree×100 Damage degree={(control)−(normal eye)}

[1] = 0.006% in physiological saline instilled into both eyes 6 times a day for 7 days, vs physiological saline control (0%)
[2] = 0.006% in physiological saline instilled into both eyes 6 times a day for 7 days, normal eye 3.0, saline control 6.1

SMILES | Improvement ratio (%) [1] [%] | Mean value of total scores [2] | Improvement ratio (%) (0.002% in PBS instilled into both eyes 6 times a day for 7 days, vs PBS control (0%)) | Mean value of total scores (0.002% in PBS instilled into both eyes 6 times a day for 7 days, normal eye 3.1, PBS control 5.6)
CCCc1c(OCCCOc2cc(O)c(-c3ccc(F)cc3)cc2CC)cccc1Oc1ccccc1C(=O)[O-].[Na+] [Compound C, 2-[2-propyl-3-[3-[2-ethyl-4-(4-fluorophenyl)-5-hydroxyphenoxy]propoxy]phenoxy]sodium benzoate] | 38.7 | 4.9 |  | 
CO[C@@H](Cc1ccc(OCCCOc2ccc(Oc3ccccc3)cc2)cc1)C(=O)O [Compound D, 2(S)-methoxy-3-[4-[3-(4-phenoxyphenoxy)propoxy]phenyl] propionic acid] |  |  | 12.0 | 5.3
Cc1oc(-c2ccccc2)nc1COc1ccc(CO/N=C(\CCC(=O)O)c2ccccc2)cc1 [Compound A, E-4-[4-(5-methyl-2-phenyl-4-oxazolylmethoxy)benzyloxyimino]-4-phenylbutyric acid] | 32.3 | 5.1 |  | 
Cc1oc(-c2ccccc2)nc1COc1ccc(CO/N=C(\C(=O)O)c2ccc(Oc3ccccc3)cc2)cc1 [Compound B, Z-2-[4-(5-methyl-2-phenyl-4-oxazolylmethoxy)benzyloxyimino]-2-(4-phenoxyphenyl) acetic acid] | 32.3 | 5.1 |  | 
